This note sets out measurements from ChEMBL document CHEMBL1141039, “Hepatitis C virus NS3-4A serine protease inhibitors: SAR of P'2 moiety with improved potency” (Bioorg Med Chem Lett, 2005).

Numbered stars: 1 amine (or outer) side, 2 acyl side, 3 side chain; on linkers, the order of the positions; unused ones are H or OH. Square brackets hold non-standard residues; d marks the D form. Peptide text beside a SMILES is read from it. * marks the point of attachment. Gly(piperidin-4-yl) = N[C@H](C(=O)O)C1CCNCC1; 2Nal = N[C@@H](Cc1ccc2ccccc2c1)C(=O)O; Isobutyloxycarbonyl = CC(C)COC(=O)*; Gly(cPent) = N[C@H](C(=O)O)C1CCCC1; X1 = CCCC(N[*:1])C(=O)C(=O)[*:2]; hPhe = N[C@@H](CCc1ccccc1)C(=O)O; Aad = N[C@@H](CCCC(=O)O)C(=O)O; Cha = N[C@@H](CC1CCCCC1)C(=O)O; Chg = N[C@H](C(=O)O)C1CCCCC1; Phg = N[C@H](C(=O)O)c1ccccc1; Tle = CC(C)(C)[C@H](N)C(=O)O; hSer = N[C@@H](CCO)C(=O)O; Nle = CCCC[C@H](N)C(=O)O; Boc = CC(C)(C)OC(=O)*; OBn = c1ccc(CO*)cc1; Bn = c1ccc(C*)cc1; OtBu = CC(C)(C)O*; tBu = CC(C)(C)*

A word on the Ki: it is a dissociation constant, usually derived from enzyme kinetics or from competition with a known ligand. Read a high Ki as lower affinity.

This test deals with NS3 (Hepatitis C virus, UniProt A3EZJ3). Kind of test: Inhibitory activity against Hepatitis C virus NS3 serine protease in continuous spectrophotometric assay. The arrangement: species or system Hepacivirus hominis.
Chain of NS3 (A3EZJ3 whole entry): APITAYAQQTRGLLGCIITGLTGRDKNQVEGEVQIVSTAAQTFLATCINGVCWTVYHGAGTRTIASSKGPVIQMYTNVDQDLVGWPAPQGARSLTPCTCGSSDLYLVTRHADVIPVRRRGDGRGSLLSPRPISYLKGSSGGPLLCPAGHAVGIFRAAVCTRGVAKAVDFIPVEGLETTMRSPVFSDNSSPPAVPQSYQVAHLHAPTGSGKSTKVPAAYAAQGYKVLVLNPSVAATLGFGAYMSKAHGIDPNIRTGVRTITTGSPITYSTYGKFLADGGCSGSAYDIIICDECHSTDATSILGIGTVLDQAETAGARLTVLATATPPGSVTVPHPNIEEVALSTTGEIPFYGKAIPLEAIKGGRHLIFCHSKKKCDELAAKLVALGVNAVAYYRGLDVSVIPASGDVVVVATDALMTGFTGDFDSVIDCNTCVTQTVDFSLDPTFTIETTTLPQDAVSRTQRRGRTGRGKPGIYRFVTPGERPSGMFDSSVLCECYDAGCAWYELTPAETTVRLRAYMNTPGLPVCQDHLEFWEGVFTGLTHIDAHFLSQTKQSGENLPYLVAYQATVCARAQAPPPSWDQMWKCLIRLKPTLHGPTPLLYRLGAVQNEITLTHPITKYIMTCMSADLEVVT

Molecule `CCCC(NC(=O)[C@@H]1CCCN1C(=O)[C@@H](NC(=O)OCC(C)C)C(C)C)C(=O)C(=O)NCC(=O)N[C@H](C(N)=O)c1ccccc1` (some centres not stated) (Isobutyloxycarbonyl-VP[X1]G[Phg]-NH2) yielded a Ki of 2.1 µM.

`CCCC(NC(=O)[C@H](CC(C)C)NC(=O)[C@@H](NC(=O)OCC(C)C)C1CCCCC1)C(=O)C(=O)NCC(=O)N[C@H](C(=O)O)C1CCNCC1` (some centres not stated) (Isobutyloxycarbonyl-[Chg]L[X1]G[Gly(piperidin-4-yl)]-OH) yielded a Ki of 6.4 µM.

Regarding `CCCC(NC(=O)[C@@H]1CCCN1C(=O)[C@@H](NC(=O)OCC(C)C)C1CCCCC1)C(=O)C(=O)NCC(=O)N[C@H](C(N)=O)c1ccccc1` (some centres not stated) (Isobutyloxycarbonyl-[Chg]P[X1]G[Phg]-NH2), the Ki worked out at 0.36 µM.

For `CCCC(NC(=O)[C@H](CC(C)C)NC(=O)[C@@H](NC(=O)OC(C)(C)C)C1CCCCC1)C(=O)C(=O)NCC(=O)N[C@H](C(=O)OCc1ccccc1)c1ccccc1` (some centres not stated) (Boc-[Chg]L[X1]G[Phg]-OBn), affinity was put at a Ki of 0.6 µM.

Consider `CCCC(NC(=O)[C@H](CC(C)C)NC(=O)[C@@H](NC(=O)OCC(C)C)C1CCCCC1)C(=O)C(=O)NCC(=O)N[C@@H](CC(=O)O)C(N)=O` (some centres not stated) (Isobutyloxycarbonyl-[Chg]L[X1]GD-NH2), for which the affinity corresponds to a Ki of 8.4 µM.

For the molecule `CCCC(NC(=O)[C@@H]1CCCN1C(=O)[C@@H](NC(=O)OCC(C)C)C(C)C)C(=O)C(=O)NCC(=O)N[C@@H](CCC(=O)OCC)C(=O)OC` (some centres not stated) (Isobutyloxycarbonyl-VP[X1]GE(OEt)-OMe), the Ki is 20 µM.

Turning to `CCCC(NC(=O)[C@@H]1CCCN1C(=O)[C@@H](NC(=O)OCC(C)C)C(C)C)C(=O)C(=O)NCC(=O)N[C@@H](CCc1ccccc1)C(N)=O` (some centres not stated) (Isobutyloxycarbonyl-VP[X1]G[hPhe]-NH2), the affinity, expressed as Ki, was 6.7 µM.

`CCCC(NC(=O)[C@H](CC(C)C)NC(=O)[C@@H](NC(=O)OCC(C)C)C1CCCCC1)C(=O)C(=O)NCC(=O)N[C@H](C(=O)OC(C)(C)C)c1ccccc1` (some centres not stated) (Isobutyloxycarbonyl-[Chg]L[X1]G[Phg]-OtBu) displayed a Ki of 0.65 µM.

Consider `CCCC(NC(=O)[C@@H]1CCCN1C(=O)[C@@H](NC(=O)OCC(C)C)C(C)C)C(=O)C(=O)NCC(=O)N[C@@H](Cc1ccccc1)C(N)=O` (some centres not stated) (Isobutyloxycarbonyl-VP[X1]GF-NH2), for which the Ki came out at 15 µM.

Turning to `CCCC(NC(=O)[C@@H]1CCCN1C(=O)[C@@H](NC(=O)OCC(C)C)C(C)C)C(=O)C(=O)NCC(=O)N[C@H](C(N)=O)C(C)(C)C` (some centres not stated) (Isobutyloxycarbonyl-VP[X1]G[Tle]-NH2), the Ki was determined as 53 µM.

Molecule `CCCC(NC(=O)[C@@H]1CCCN1C(=O)[C@@H](NC(=O)OCC(C)C)C(C)C)C(=O)C(=O)NCC(=O)N[C@@H](Cc1ccc2ccccc2c1)C(N)=O` (some centres not stated) (Isobutyloxycarbonyl-VP[X1]G[2Nal]-NH2) showed a Ki of 12 µM.

Take `CCCC(NC(=O)[C@@H]1CCCN1C(=O)[C@@H](NC(=O)OCC(C)C)C(C)C)C(=O)C(=O)NCC(=O)N[C@@H](CCO)C(N)=O` (some centres not stated) (Isobutyloxycarbonyl-VP[X1]G[hSer]-NH2): the Ki is 111 µM.

The molecule `CCCC(NC(=O)[C@@H]1CCCN1C(=O)[C@@H](NC(=O)OCC(C)C)C(C)C)C(=O)C(=O)NCC(=O)N[C@@H](CC(=O)O)C(=O)O` (some centres not stated) (Isobutyloxycarbonyl-VP[X1]GD-OH) returned a Ki of over 100 µM.

The molecule `CCCC(NC(=O)[C@@H]1CCCN1C(=O)[C@@H](NC(=O)OCC(C)C)C(C)C)C(=O)C(=O)NCC(=O)N[C@@H](COCc1ccccc1)C(N)=O` (some centres not stated) (Isobutyloxycarbonyl-VP[X1]GS(Bn)-NH2) gave an inhibition constant (Ki) of 3.5 µM.

As for `CCCC(NC(=O)[C@H](CC(C)C)NC(=O)[C@@H](NC(=O)OCC(C)C)C1CCCCC1)C(=O)C(=O)NCC(=O)N[C@@H](COC(C)(C)C)C(N)=O` (some centres not stated) (Isobutyloxycarbonyl-[Chg]L[X1]GS(tBu)-NH2), the affinity corresponds to a Ki of 0.46 µM.

`CCCC(NC(=O)[C@@H]1CCCN1C(=O)[C@@H](NC(=O)OCC(C)C)C(C)C)C(=O)C(=O)NCC(=O)N[C@@H](CC(=O)OC)C(=O)OC` (some centres not stated) (Isobutyloxycarbonyl-VP[X1]GD(OMe)-OMe): the Ki came out at 55 µM.

With `CCCC(NC(=O)[C@H](CC(C)C)NC(=O)[C@@H](NC(=O)OC(C)(C)C)C1CCCCC1)C(=O)C(=O)NCC(=O)NCc1ccccc1` (some centres not stated), the Ki came out at 81 µM.

In the case of `CCCC(NC(=O)[C@@H]1CCCN1C(=O)[C@@H](NC(=O)OCC(C)C)C(C)C)C(=O)C(=O)NCC(=O)N[C@@H](CCCC(=O)O)C(N)=O` (some centres not stated) (Isobutyloxycarbonyl-VP[X1]G[Aad]-NH2), the Ki stood at 18 µM.

Molecule `CCCC(NC(=O)[C@H](CC(C)C)NC(=O)[C@@H](NC(=O)OCC(C)C)C1CCCCC1)C(=O)C(=O)NCC(=O)N[C@H](C(=O)O)C1CCCC1` (some centres not stated) (Isobutyloxycarbonyl-[Chg]L[X1]G[Gly(cPent)]-OH) registered a Ki of 0.33 µM.

In the case of `CCCC(NC(=O)[C@@H]1CCCN1C(=O)[C@@H](NC(=O)OC(C)(C)C)C1CCCCC1)C(=O)C(=O)NCC(=O)NCc1ccccc1` (some centres not stated), the Ki came to 45 µM.

The molecule `CCCC[C@H](NC(=O)CNC(=O)C(=O)C(CCC)NC(=O)[C@H](CC(C)C)NC(=O)[C@@H](NC(=O)OCC(C)C)C1CCCCC1)C(N)=O` (some centres not stated) (Isobutyloxycarbonyl-[Chg]L[X1]G[Nle]-NH2) showed a Ki of 0.28 µM.

Take `CCCC(NC(=O)[C@@H]1CCCN1C(=O)[C@@H](NC(=O)OCC(C)C)C(C)C)C(=O)C(=O)NCC(=O)N[C@@H](CCC(=O)O)C(=O)O` (some centres not stated) (Isobutyloxycarbonyl-VP[X1]GE-OH): the Ki was over 100 µM.

Molecule `CCCC(NC(=O)[C@@H]1CCCN1C(=O)[C@@H](NC(=O)OCC(C)C)C(C)C)C(=O)C(=O)NCC(=O)N[C@@H](CC1CCCCC1)C(N)=O` (some centres not stated) (Isobutyloxycarbonyl-VP[X1]G[Cha]-NH2) had a Ki of 8 µM.

As to `CCCC(NC(=O)[C@H](CC(C)C)NC(=O)[C@@H](NC(=O)OC(C)(C)C)C1CCCCC1)C(=O)C(=O)NCC(=O)N[C@H](C(=O)O)c1ccccc1` (some centres not stated) (Boc-[Chg]L[X1]G[Phg]-OH), the Ki worked out at 0.098 µM.

Take `CCCC(NC(=O)[C@@H]1CCCN1C(=O)[C@@H](NC(=O)OCC(C)C)C(C)C)C(=O)C(=O)NCC(=O)N[C@H](C(N)=O)C1CCCCC1` (some centres not stated) (Isobutyloxycarbonyl-VP[X1]G[Chg]-NH2): the Ki turned out to be 2.6 µM.

As for `CCCC(NC(=O)[C@@H]1CCCN1C(=O)[C@@H](NC(=O)OCC(C)C)C(C)C)C(=O)C(=O)NCC(=O)N[C@H](C(=O)OC)[C@@H](C)CC` (some centres not stated) (Isobutyloxycarbonyl-VP[X1]GI-OMe), the inhibition constant (Ki) worked out at 15 µM.

`CCCC(NC(=O)[C@H](CC(C)C)NC(=O)[C@@H](NC(=O)OCC(C)C)C1CCCCC1)C(=O)C(=O)NCC(=O)N[C@H](C(N)=O)C(C)C` (some centres not stated) (Isobutyloxycarbonyl-[Chg]L[X1]GV-NH2) had a Ki of 2.6 µM.

In turn, `CCCC(NC(=O)[C@H](CC(C)C)NC(=O)[C@@H](NC(=O)OCC(C)C)C1CCCCC1)C(=O)C(=O)NCC(=O)N[C@H](C(=O)O)C1CCN(C(=O)OC(C)(C)C)CC1` (some centres not stated) registered a Ki of 3.3 µM.

`CCCC(NC(=O)[C@@H]1CCCN1C(=O)[C@@H](NC(=O)OCC(C)C)C(C)C)C(=O)C(=O)NCC(=O)N[C@H](C(=O)O)[C@@H](C)CC` (some centres not stated) (Isobutyloxycarbonyl-VP[X1]GI-OH): the Ki was found to be 15 µM.

As to `CCCC(NC(=O)[C@H](CC(C)C)NC(=O)[C@@H](NC(=O)OCC(C)C)C1CCCCC1)C(=O)C(=O)NCC(=O)N[C@H](C(=O)O)c1ccccc1` (some centres not stated) (Isobutyloxycarbonyl-[Chg]L[X1]G[Phg]-OH), the Ki was found to be 0.12 µM.

For `CCCC(NC(=O)[C@@H]1CCCN1C(=O)[C@@H](NC(=O)OCC(C)C)C(C)C)C(=O)C(=O)NCC(=O)N[C@@H](CCCCN)C(N)=O` (some centres not stated) (Isobutyloxycarbonyl-VP[X1]GK-NH2), the Ki is 82 µM.

Molecule `CCCC(NC(=O)[C@@H]1CCCN1C(=O)[C@@H](NC(=O)OCC(C)C)C(C)C)C(=O)C(=O)NCC(=O)N[C@@H](CC(C)C)C(N)=O` (some centres not stated) (Isobutyloxycarbonyl-VP[X1]GL-NH2) had a Ki of 16 µM.
